The results in this text go back to PMC5730985 (Analytical biochemistry, 2017).

In this assay the test system is PLR3. Description: light-based bioluminescence assay. It is filed as biochemical, Photinus pyralis. Conditions: pH 7.4.

Molecules are shown by their SMILES. Read-outs that look alike come from different tables or passages of the source.

For the compound `Nc1ncnc2c1ncn2[C@@H]1O[C@H](COP(=O)(O)OP(=O)(O)OP(=O)(O)O)[C@@H](O)[C@H]1O` [Mg-ATP], the Km (read-out: Km (μM) / Mg-ATP, co-substrate LH2, O2, Mg complex) came out at 12 ± 2 µM.
Regarding `O=C(O)[C@H]1CSC(c2nc3ccc(O)cc3s2)=N1` [LH2], for the setting “read-out: Km (μM) / LH2, co-substrate Mg-ATP, O2”, the Km came out at 17 ± 3 µM.
